Measurements as given in patent US11965039B2, “Compstatin analogues and their medical uses” (priority 2018, dated 2024).
pIC50: −log10 of the molar value. Starred links: 1 amine or outer side, 2 acyl side, 3 side chain; linkers in the order of their positions; H or OH if unused. Positions of bridges follow the written chain, without caps; N, C: chain ends. Non-standard residues stand in square brackets, D forms with d. Residues, ends and D or L forms follow the SMILES beside them. Groups on a side chain read outwards from the residue. *: point of attachment. Trp(1-Me) = Cn1cc(C[C@H](N)C(=O)O)c2ccccc21; C18 diacid = O=C(O)CCCCCCCCCCCCCCCCC(=O)*; C16 diacid = O=C(O)CCCCCCCCCCCCCCC(=O)*; γGlu = O=C(O)[C@H](CCC(=O)[*:2])N[*:1]; 1Nal = N[C@@H](Cc1cccc2ccccc12)C(=O)O; Sar = CNCC(=O)O

How the values were obtained:
[1] = test system: classical complement pathway; experiment: In vitro haemolysis assay (inhibition of classical complement pathway); assay type: cell-based, human; conditions: human serum, sensitized sheep red blood cells; Table 3, given as upper bounds; read-out: IC50, inhibition of hemolysis
Method in brief: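 Compound dilutions preincubated 15 min at room temperature with diluted human serum (titrated per batch for 70-90% maximal haemolysis), then antibody-sensitized sheep RBC (10^7/well) added for 30 min at 37 °C in Tris/casein buffer, pH 7.4. Stopped with EDTA; haemolysis read at 405 nm; IC50 by 4PL fit.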

[2] = Solubility test at 10 mg/mL (visual inspection and light scattering); assay type: physicochemical; conditions: for Solubility, Condition 1: Acetate pH 4; for Solubility, Condition 2: Acetate pH 5; for Solubility, Condition 3: Phosphate pH 6; for Solubility, Condition 4: Phosphate pH 7; for Solubility, Condition 5: Phosphate pH 7.5

SMILES: CC[C@H](C)[C@@H]1NC(=O)[C@@H](NC(=O)[C@H](Cc2ccccc2)NC(=O)[C@H](C)NC(=O)[C@H](CO)NC(=O)CNC(=O)[C@H](CCC(=O)O)NC(C)=O)CSSC[C@@H](C(=O)N[C@H](C(=O)N[C@@H](CCC(=O)O)C(N)=O)[C@@H](C)O)NC(=O)[C@H](CCCNC(=N)N)NC(=O)[C@H](Cc2c[nH]cn2)NC(=O)[C@H](CCC(=O)O)NC(=O)CNC(=O)[C@H](Cc2c[nH]c3ccccc23)NC(=O)[C@H](CC(=O)O)NC(=O)[C@H](CCC(N)=O)NC(=O)[C@H](Cc2cccc3ccccc23)NC1=O [Compound 56] (Ac-EGSAFCI[1Nal]QDWGEHRCTE-NH2; disulfide 6-16)
- pIC50 [1]: > 7.00
- Solubility, Condition 1 [2]: − (“−” denotes lack of solubility at the given condition, as UV absorbance at 340 nm exceeds 0.1 AU and/or it is visibly turbid or contains particles)
- Solubility, Condition 2 [2]: − (“−” denotes lack of solubility at the given condition, as UV absorbance at 340 nm exceeds 0.1 AU and/or it is visibly turbid or contains particles)
- Solubility, Condition 3 [2]: + (“+” denotes solubility at the given condition, as determined by UV absorbance being less than 0.1 AU at 340 nm and the sample being clear when manually inspected)
- Solubility, Condition 4 [2]: + (“+” denotes solubility at the given condition, as determined by UV absorbance being less than 0.1 AU at 340 nm and the sample being clear when manually inspected)
- Solubility, Condition 5 [2]: + (“+” denotes solubility at the given condition, as determined by UV absorbance being less than 0.1 AU at 340 nm and the sample being clear when manually inspected)

SMILES: CC[C@H](C)[C@@H]1NC(=O)[C@@H](NC(=O)[C@H](Cc2ccc(O)cc2)NC(=O)[C@H](CCC(=O)O)NC(=O)[C@H](CO)NC(=O)CNC(=O)[C@H](CCC(=O)O)NC(=O)CCCCCCCCCCCCCCC(=O)O)CSSC[C@@H](C(=O)N(C)CC(=O)N[C@@H](CCC(=O)O)C(N)=O)NC(=O)[C@H](CCCNC(=N)N)NC(=O)[C@H](Cc2c[nH]cn2)NC(=O)[C@H](CCC(=O)O)NC(=O)CNC(=O)[C@H](Cc2c[nH]c3ccccc23)NC(=O)[C@H](CC(=O)O)NC(=O)[C@H](CCC(N)=O)NC(=O)[C@H](Cc2cn(C)c3ccccc23)NC1=O [Compound 107] ({C16 diacid}-EGSEYCI[Trp(1-Me)]QDWGEHRC[Sar]E-NH2; disulfide 6-16)
- pIC50 [1]: > 7.00
- Solubility, Condition 1 [2]: − (“−” denotes lack of solubility at the given condition, as UV absorbance at 340 nm exceeds 0.1 AU and/or it is visibly turbid or contains particles)
- Solubility, Condition 2 [2]: − (“−” denotes lack of solubility at the given condition, as UV absorbance at 340 nm exceeds 0.1 AU and/or it is visibly turbid or contains particles)
- Solubility, Condition 3 [2]: + (“+” denotes solubility at the given condition, as determined by UV absorbance being less than 0.1 AU at 340 nm and the sample being clear when manually inspected)
- Solubility, Condition 4 [2]: + (“+” denotes solubility at the given condition, as determined by UV absorbance being less than 0.1 AU at 340 nm and the sample being clear when manually inspected)
- Solubility, Condition 5 [2]: + (“+” denotes solubility at the given condition, as determined by UV absorbance being less than 0.1 AU at 340 nm and the sample being clear when manually inspected)

SMILES: CC[C@H](C)[C@@H]1NC(=O)[C@@H](NC(=O)[C@H](Cc2ccc(O)cc2)NC(C)=O)CSSC[C@@H](C(=O)N[C@H](C(=O)NCC(=O)N[C@@H](C)C(=O)N[C@@H](CCC(=O)O)C(=O)N[C@@H](CO)C(N)=O)[C@@H](C)O)NC(=O)[C@H](CCCNC(=N)N)NC(=O)[C@H](Cc2c[nH]cn2)NC(=O)[C@H](CCC(=O)O)NC(=O)CNC(=O)[C@H](Cc2c[nH]c3ccccc23)NC(=O)[C@H](CC(=O)O)NC(=O)[C@H](CCC(N)=O)NC(=O)[C@H](Cc2c[nH]c3ccccc23)NC1=O [Compound 66] (Ac-YCIWQDWGEHRCTGAES-NH2; disulfide 2-12)
- pIC50 [1]: > 7.00
- Solubility, Condition 1 [2]: − (“−” denotes lack of solubility at the given condition, as UV absorbance at 340 nm exceeds 0.1 AU and/or it is visibly turbid or contains particles)
- Solubility, Condition 2 [2]: − (“−” denotes lack of solubility at the given condition, as UV absorbance at 340 nm exceeds 0.1 AU and/or it is visibly turbid or contains particles)
- Solubility, Condition 3 [2]: + (“+” denotes solubility at the given condition, as determined by UV absorbance being less than 0.1 AU at 340 nm and the sample being clear when manually inspected)
- Solubility, Condition 4 [2]: + (“+” denotes solubility at the given condition, as determined by UV absorbance being less than 0.1 AU at 340 nm and the sample being clear when manually inspected)
- Solubility, Condition 5 [2]: + (“+” denotes solubility at the given condition, as determined by UV absorbance being less than 0.1 AU at 340 nm and the sample being clear when manually inspected)

SMILES: CC[C@H](C)[C@@H]1NC(=O)[C@@H](NC(=O)[C@H](Cc2ccc(O)cc2)NC(=O)[C@H](CCC(=O)O)NC(=O)[C@H](CO)NC(C)=O)CSSC[C@@H](C(=O)N(C)CC(=O)N[C@@H](CCC(=O)O)C(=O)NCC(=O)N[C@@H](CCCCN)C(=O)N[C@@H](CCCCNC(=O)CC[C@H](NC(=O)CNC(=O)CC[C@H](NC(=O)CCCCCCCCCCCCCCCCC(=O)O)C(=O)O)C(=O)O)C(N)=O)NC(=O)[C@H](CCCNC(=N)N)NC(=O)[C@H](Cc2c[nH]cn2)NC(=O)[C@H](CCC(=O)O)NC(=O)CNC(=O)[C@H](Cc2c[nH]c3ccccc23)NC(=O)[C@H](CC(=O)O)NC(=O)[C@H](CCC(N)=O)NC(=O)[C@H](Cc2cn(C)c3ccccc23)NC1=O [Compound 115] (Ac-SEYCI[Trp(1-Me)]QDWGEHRC[Sar]EGKK([γGlu-Gly-γGlu-C18 diacid])-NH2; disulfide 4-14)
- pIC50 [1]: > 6.60
- Solubility, Condition 1 [2]: − (“−” denotes lack of solubility at the given condition, as UV absorbance at 340 nm exceeds 0.1 AU and/or it is visibly turbid or contains particles)
- Solubility, Condition 2 [2]: − (“−” denotes lack of solubility at the given condition, as UV absorbance at 340 nm exceeds 0.1 AU and/or it is visibly turbid or contains particles)
- Solubility, Condition 3 [2]: + (“+” denotes solubility at the given condition, as determined by UV absorbance being less than 0.1 AU at 340 nm and the sample being clear when manually inspected)
- Solubility, Condition 4 [2]: + (“+” denotes solubility at the given condition, as determined by UV absorbance being less than 0.1 AU at 340 nm and the sample being clear when manually inspected)
- Solubility, Condition 5 [2]: + (“+” denotes solubility at the given condition, as determined by UV absorbance being less than 0.1 AU at 340 nm and the sample being clear when manually inspected)

SMILES: CC[C@H](C)[C@@H]1NC(=O)[C@@H](NC(=O)[C@H](Cc2ccccc2)NC(=O)[C@H](N)Cc2ccc(O)cc2)CSSC[C@@H](C(=O)N[C@H](C(=O)NCC(=O)N[C@@H](C)C(=O)N[C@@H](CCC(=O)O)C(=O)N[C@@H](CO)C(N)=O)[C@@H](C)O)NC(=O)[C@H](CCCNC(=N)N)NC(=O)[C@H](Cc2c[nH]cn2)NC(=O)[C@H](CCC(=O)O)NC(=O)CN(C)C(=O)[C@H](Cc2c[nH]c3ccccc23)NC(=O)[C@H](CC(=O)O)NC(=O)[C@H](CCC(N)=O)NC(=O)[C@H](Cc2cn(C)c3ccccc23)NC1=O [Compound 73, H-{d}YFC(1)I[1-Me-Trp]QDW[Sar]EHRC(1)TGAES-NH2] (H-[dY]FCI[Trp(1-Me)]QDW[Sar]EHRCTGAES-NH2; disulfide 3-13)
- pIC50 [1]: > 7.00
- Solubility, Condition 1 [2]: + (“+” denotes solubility at the given condition, as determined by UV absorbance being less than 0.1 AU at 340 nm and the sample being clear when manually inspected)
- Solubility, Condition 2 [2]: − (“−” denotes lack of solubility at the given condition, as UV absorbance at 340 nm exceeds 0.1 AU and/or it is visibly turbid or contains particles)
- Solubility, Condition 3 [2]: − (“−” denotes lack of solubility at the given condition, as UV absorbance at 340 nm exceeds 0.1 AU and/or it is visibly turbid or contains particles)
- Solubility, Condition 4 [2]: + (“+” denotes solubility at the given condition, as determined by UV absorbance being less than 0.1 AU at 340 nm and the sample being clear when manually inspected)
- Solubility, Condition 5 [2]: + (“+” denotes solubility at the given condition, as determined by UV absorbance being less than 0.1 AU at 340 nm and the sample being clear when manually inspected)

SMILES: CC[C@H](C)[C@H](NC(C)=O)C(=O)N[C@H]1CSSC[C@@H](C(=O)N[C@@H](CCC(=O)O)C(=O)NCC(=O)N[C@@H](CCC(=O)O)C(N)=O)NC(=O)[C@H](CCCNC(=N)N)NC(=O)[C@H](Cc2c[nH]cn2)NC(=O)[C@H](CCC(=O)O)NC(=O)CNC(=O)[C@H](Cc2c[nH]c3ccccc23)NC(=O)[C@H](CC(=O)O)NC(=O)[C@H](CCC(N)=O)NC(=O)[C@H](Cc2c[nH]c3ccccc23)NC(=O)[C@H]([C@@H](C)CC)NC1=O [Compound 27] (Ac-ICIWQDWGEHRCEGE-NH2; disulfide 2-12)
- pIC50 [1]: > 7.00
- Solubility, Condition 1 [2]: − (“−” denotes lack of solubility at the given condition, as UV absorbance at 340 nm exceeds 0.1 AU and/or it is visibly turbid or contains particles)
- Solubility, Condition 2 [2]: − (“−” denotes lack of solubility at the given condition, as UV absorbance at 340 nm exceeds 0.1 AU and/or it is visibly turbid or contains particles)
- Solubility, Condition 3 [2]: − (“−” denotes lack of solubility at the given condition, as UV absorbance at 340 nm exceeds 0.1 AU and/or it is visibly turbid or contains particles)
- Solubility, Condition 4 [2]: + (“+” denotes solubility at the given condition, as determined by UV absorbance being less than 0.1 AU at 340 nm and the sample being clear when manually inspected)
- Solubility, Condition 5 [2]: + (“+” denotes solubility at the given condition, as determined by UV absorbance being less than 0.1 AU at 340 nm and the sample being clear when manually inspected)
